Consider 14 compounds from ChEMBL document CHEMBL1938360, “6-Amino quinazolinedione sulfonamides as orally active competitive AMPA receptor antagonists” (Bioorg Med Chem Lett, 2012).

Each structure is given as a SMILES string. Active and inactive are the calls of the source. The rule behind the calls is not given here.

Data set [1] in a line: Displacement of [3H]CNQX from AMPA receptor on rat brain homogenate. In kind it is tissue-based. On the technique in general: Displacement assays read how much labelled ligand stays bound in the presence of the test substance.
Data set [2] deals with Mus musculus. The data set can be described thus: Anticonvulsant activity in DBA/2 mouse assessed as protection from audiogenic seizures at 30 mg/kg, ip measured 1 hr post administration. The data set is classed as functional, organism-based. Also noted: dose 30 mg/kg.
In data set [3] the test system is Mus musculus. Kind of data set: Anticonvulsant activity in DBA/2 mouse assessed as protection from audiogenic seizures at 30 mg/kg, po measured 1 hr post administration. In kind it is functional.
Data set [4] concerns Mus musculus. Kind of data set: Anticonvulsant activity in DBA/2 mouse assessed as protection from audiogenic seizures at 10 mg/kg, po measured 1 hr post administration. In kind it is functional.
Data set [5] concerns Mus musculus. Kind of data set: Anticonvulsant activity in intraperitoneally dosed DBA/2 mouse assessed as protection from tonic seizures measured 1 hr post administration. The data set is classed as functional. The note with it: DBA/2, ip.
Data set [6] can be described thus: Oral bioavailability in DBA/2 mouse at 30 mg/kg. The note with it: in vivo. The data set is classed as ADME, organism-based.
Data set [7] can be described thus: Clearance in DBA/2 mouse at 30 mg/kg. Particulars: in vivo. Details: dose 30 mg/kg. In kind it is ADME, organism-based.
Data set [8] relates to Mus musculus. The data set can be described thus: Anticonvulsant activity against po dosed electric-shock mouse model assessed as inhibition of convulsion in hind legs measured 2 hrs post administration. In kind it is functional.
The test system of data set [9] is Mus musculus. The data set can be described thus: Anticonvulsant activity against po dosed electric-shock mouse model assessed as inhibition of convulsion in hind legs at 50 mg/kg, po measured 4 hrs post administration. In kind it is functional.
Data set [10] deals with Mus musculus. The data set can be described thus: Anticonvulsant activity in orally dosed DBA/2 mouse assessed as protection from tonic seizures measured 1 hr post administration. The note with it: DBA/2, po.

For `CS(=O)(=O)Nn1c(=O)[nH]c2cc(C(F)(F)F)c(N)cc2c1=O`, the concentration for half-maximal inhibition (IC50) in data set [1] was determined as 1200 nM.
Compound `CS(=O)(=O)Nn1c(=O)[nH]c2cc([N+](=O)[O-])c(-n3ccnc3)cc2c1=O` gave an IC50 in data set [1] of 81 nM. Also, in the data set on Mus musculus [2], the result was Active. Moreover, in the data set with Mus musculus [3], the outcome was inactive.
Regarding `CN(C)C(=O)c1cn(-c2cc3c(=O)n(NS(C)(=O)=O)c(=O)[nH]c3cc2C(F)(F)F)cn1`, in data set [1], the IC50 was found to be 420 nM.
As to `CS(=O)(=O)Nn1c(=O)[nH]c2cc(C(F)(F)F)c(NCCO)cc2c1=O`, the IC50 in data set [1] stood at 550 nM. In the data set with Mus musculus [4], the Activity was 20%.
As for `CCNc1cc2c(=O)n(NS(C)(=O)=O)c(=O)[nH]c2cc1C(F)(F)F`, in data set [1], the IC50 stood at 1000 nM. Moreover, the Activity in the data set with Mus musculus [3] is recorded as 53%.
In [1], `CS(=O)(=O)Nn1c(=O)[nH]c2cc(C(F)(F)F)c(N3CCOCC3)cc2c1=O` registered a 50% inhibitory concentration (IC50) of 500 nM. Besides, the 50% effective dose (ED50) in the data set on Mus musculus [5] is 58 mg/kg. The compound also displayed a bioavailability in data set [6] of 100%. Besides, the clearance in data set [7] worked out at 135 mL/min/kg.
As for `CNC(=O)c1ncn(-c2cc3c(=O)n(NS(C)(=O)=O)c(=O)[nH]c3cc2C(F)(F)F)n1`, in data set [1], the IC50 is 110 nM.
The same measure, in the same setting: as for `CS(=O)(=O)Nn1c(=O)[nH]c2cc(C(F)(F)F)c(-n3cccc3)cc2c1=O`, the figure is 165 nM.
Consider `CS(=O)(=O)Nn1c(=O)[nH]c2cc(C(F)(F)F)c(-n3ccnc3)cc2c1=O`, for which the IC50 in [1] came out at 44 nM. Further, in the data set with Mus musculus [2], the outcome was Active. Moreover, the result in the data set with Mus musculus [3] was inactive.
In turn, `CS(=O)(=O)Nn1c(=O)[nH]c2cc(C(F)(F)F)c(N3CCCOCC3)cc2c1=O` gave a half-inhibitory concentration (IC50) in data set [1] of 360 nM. For the same compound, in data set [6], the bioavailability turned out to be 100%. The compound also returned a clearance in data set [7] of 10.2 mL/min/kg. The figures for the ED50 with Mus musculus [8] and in the data set on Mus musculus [10] were 10.5 mg/kg and 5.5 mg/kg, respectively. For the same compound, in the data set on Mus musculus [9], the inhibition in vivo at 50 mg/kg was found to be 20%.
Turning to `CNC(=O)c1cn(-c2cc3c(=O)n(NS(C)(=O)=O)c(=O)[nH]c3cc2C(F)(F)F)cn1`, in the data set on Mus musculus [2], the result was Active. Further, in the data set with Mus musculus [3], the outcome was inactive. This compound also returned a bioavailability in data set [6] of 10%.
In data set [1], `CS(=O)(=O)Nn1c(=O)[nH]c2cc(C(F)(F)F)c(-n3cnnc3)cc2c1=O` returned an IC50 of 46 nM. For the same compound, the result in the data set with Mus musculus [2] was Active. In the data set on Mus musculus [3], the result was inactive. Besides, in the data set on Mus musculus [5], the 50% effective dose (ED50) was 0.94 mg/kg. In addition, in data set [6], the bioavailability came to 10%.
In turn, `CN(C)C(=O)c1ncn(-c2cc3c(=O)n(NS(C)(=O)=O)c(=O)[nH]c3cc2C(F)(F)F)n1` showed a half-inhibitory concentration (IC50) in data set [1] of 1020 nM.
`CN(CCO)c1cc2c(=O)n(NS(C)(=O)=O)c(=O)[nH]c2cc1C(F)(F)F` yielded a half-maximal inhibitory concentration (IC50) in [1] of 250 nM. Also, the 50% effective dose (ED50) with Mus musculus [5] was 7.9 mg/kg. The compound further had a bioavailability in [6] of 100%. Also, in data set [7], the clearance came to 49 mL/min/kg.

The IC50 is the point on the concentration scale where inhibition reaches its midpoint. Higher therefore signals lower potency. The term ED50 denotes the dose that gives a 50% effect, or the effect in half of the subjects. Usually bioavailability stands for dose-corrected exposure relative to a reference, in per cent. Higher therefore signals good availability. One may read the clearance as a measure of how efficiently the substance is removed, as volume per time. What is called inhibition in vivo is how much of the control response was suppressed.
